Here are results for 1 substance from US6713459B1, “Methods for the prophylactic and therapeutic treatment of cardiac tissue damage” (East Tennessee State University, priority 2000, dated 2004).

Assay type in all cases: in vivo, Sprague-Dawley rats
The test system of assay [1] is rat hearts subjected to ischemia/reperfusion. Kind of assay: myocardial infarct size after LAD occlusion and reperfusion, TTC staining. The settings on record: 40 mg/kg one hour before 45 min LAD occlusion, 4 hr reperfusion; mean±SEM; untreated 48.82±3.03%. Here is the method:
(§1) Ischemia/reperfusion protocols were performed using Sprague-Dawley rats (Harlan Sprague-Dawley, Indianapolis, Indiana). Left anterior descending (LAD) coronary artery occlusion was performed by tying off the LAD artery near its origin using a suture. Glucan phosphate was employed in the ischemia reperfusion (I/R) studies.
Sprague-Dawley rats (250-300 g) were treated, with (1→3)-β-D-glucans at a concentration of 40 mg/kg one hour before the hearts were subjected to 45 minutes of occlusion of the left anterior descending (LAD) coronary artery, followed by reperfusion for 4 hours. At the completion of the experimental protocol, the heart was removed, rinsed free of blood, stained with 1% Evans Blue, and sectioned into five slices, followed by incubation in triphenyltetrazolium chloride (TTC) solution. Viable myocardium (risk area) was stained with TTC while the necrotic myocardium was pale white. The area of infarction on both sides of each slice was analyzed by an image analyzer (Alpha Imager 2000), corrected for each slice weight and summed for each left ventricle. The infarct areas were expressed as a percentage of risk area as well as a percentage of left ventricle and the risk areas were expressed as a percentage of left ventricle.
Glucan phosphate (40 mg/kg) was administered to rats via intravenous route 5 min. after the rat hearts were subjected to occlusion of the left afterior descending (LAD) coronary artery, followed by 4 hr. reperfusion. Subsequently, the hearts were harvested and the infarct size/area at risk was determined using TTC staining and image analysis as described previously. FIG. 19 illustrates results, with infarct size expressed as percentage of risk area and risk area expressed as percentage of the left ventricle.

In the next assay the test system is NF-κB. Kind of assay: EMSA of nuclear NF-κB binding activity in rat myocardium after I/R. Particulars: 40 mg/Kg one hr before ischemia (I45 or I15R30). Here is the method:
Rats were pretreated with glucan (40 mg/Kg) for one hr. before being subjected to 45 min. of ischemia (I45), as well as 15 min. ischemia followed by 30 min. reperfusion (I15R30). Nuclear proteins were isolated and analyzed by EMSA. Results are expressed as means±SEM for 5 hearts at each time point. P<0.05 as compared to normal (N).
as §1
(§2) To investigate NF-κB activation in vivo, rat hearts were subjected to various periods of ischemia or ischemia and reperfusion (I/R). For example, levels of IκBα and phosphorylated IκBα proteins in cell cytoplasm following ischemia were evaluated by Western blot with anti-IκBα or antibody specific for the phosphorylated […] (FIG. 9a). NF-κB binding activity in the nucleus following onset of ischemia was analyzed by electrophoretic mobility shift assay (EMSA) (FIG. 10a). […]
NF-κB nuclear binding activity in rat myocardium after in vivo I/R was also determined. […]
(In general: Mobility shift assays separate free from complexed probe on a gel.)

The test system of another assay is IκBα. Put plainly: Western blot of cytoplasmic IκBα in rat myocardium after I/R. The settings on record: 40 mg/Kg one hr before 15 min ischemia and 30 min reperfusion. As to the method:
FIG. 15 is a graphic representation of effect of glucan on loss of IκBα from rat myocardial cytoplasm following I/R. Rats were pretreated with glucan (40 mg/Kg) for one hr. before being subjected to 15 min. of ischemia and 30 min. of reperfusion. Cytoplasmic proteins were isolated and levels of IκBα protein determined by Western blot analysis. Results were expressed as means±SEM for 5 hearts at each time point. P<0.05 as compared to normal (N).
as §1, §2
On the technique in general: A western blot detects proteins with antibodies after separation by electrophoresis.

A further assay relates to TNFα mRNA. Kind of assay: RT-PCR of TNFα mRNA in rat myocardium after I/R. The settings on record: 40 mg/Kg 1 hr before 15 min ischemia and 1 hr reperfusion. As to the method:
FIG. 17 depicts RT-PCR analysis of total RNA obtained from rat myocardium pretreated with glucan (40 mg/Kg) for 1 hr. prior to 15 min. ischemia and 1 hr. reperfusion. TNFα and GAPDH are labeled at right to indicate the position of the corresponding RNA. M is a 100 bp DNA ladder. As indicated, pretreatment with glucan (I15′R1 hr+Glucan) decreases myocardial TNFα mRNA expression after I/R.
as §1
The inventors also investigated whether (1→3)-β-D-glucans regulate TNFα gene expression. […] (1→3)-β-D-glucan down-regulates LPS-induced TNFα mRNA expression in vivo.

The test system of assay [2] is cardiac myocyte apoptosis. Put plainly: TUNEL assay of cardiac myocyte apoptosis after I/R. The settings on record: 40 mg/kg 1 hr before 30 min ischemia, 3 hr reperfusion; untreated I/R hearts 17.17±1.41%. Here is the method:
as §1
The effects of (1→3)-β-D-glucan on apoptosis were investigated using rats treated with (1-3)-β-D-glucan (40 mg/kg) 1 hr. before the. hearts were subjected to 30 min. of ischemia followed by 3 hr. reperfusion. Upon completion of the protocol, the hearts were removed, rinsed free of blood, and perfused with freshly prepared phosphate-buffered 4% formaldehyde. Heart segments distal to the ligation were horizontally sliced into 2 mm sections and fixed with phosphate-buffered 4% formaldehyde at 4° C. overnight. The terminal deoxynucleotidyl transferase-mediated dUTP nick end-labeling (TUNEL) technique (Gavrieli, Y., et al., J. Cell Biol. (1992) 119: 493-501) was used to quantitate the level of apoptosis, using an In Situ Cell Death Detection Kit (Roche Diagnostics) and manufacturer's instructions. Briefly, three slides from each block were evaluated to determine the percentage of TUNEL positive cells. For each slide, four fields were randomly examined using a defined rectangular field area with magnification of 200×. A total of 100 cells were counted in each field. […]

On to (1→3)-β-D-glucan, for which the “infarct size/area at risk” value in assay [1] came to 25.86±2.33%. In addition, in the assay on NF-κB, the “effect on I/R induced myocardial NF-κB binding activity” value is recorded as “markedly reduced, but did not completely inhibit”. In addition, the “effect on cytoplasmic IκBα after I/R” value in the assay on IκBα was “prevent loss”. For the same substance, the “effect on I/R increase in TNFα mRNA levels” value in the assay on TNFα mRNA is “significantly inhibited”. Also, the “apoptotic cell nuclei (TUNEL positive)” value in assay [2] is given as 3.33±0.71%.
